Experimental data published in patent publication US12662497B2, “Benzazepine compounds, preparation method therefor and pharmaceutical use thereof” (Shanghai Senhui Medicine Co., Ltd., priority 2021, dated 2026).
One block for each molecule: values may come before it.

Experiments:
[1] = Pharmacokinetic study in rats (Test Example 4), intragastric administration; assay type: in vivo; details: Sprague-Dawley, rat, plasma, SD rats, mean value
Protocol: 1.1.1. Experimental Animals: SD Rats, Male and Female, Weighing about 180-220 g. Housing Environment: SPF. The Animals were Transferred from the Animal Repository (999M-017) of the Laboratory Animal Management Department, Shanghai Institute of Planned Parenthood Research. 1.1.2. Administration Regimen:
(§1) Tolvaptan and compound 5 were intragastrically administrated. Blood was collected before the administration and 10 min, 0.5 h, 1 h, 2 h, 4 h, 6 h, 8 h and 24 h after the administration. EDTA-K2 was used as the anticoagulant, and the esterase inhibitor DDVP was added. Plasma samples were separated and cryopreserved at −70° C., and the compound 5 and tolvaptan levels were determined by LC-MS/MS.

[2] = Pharmacokinetic study in beagles (Test Example 5), intravenous drip and intragastric administration; assay type: in vivo; details: for AUC(0-t) / Cmax / Tmax / half-life: beagle, dog, plasma
Protocol: (§2) 1.1.1. Experimental Animals: Beagles, Non-Naïve, Sourced from the Animal Repository of Medicilon: 999M-004.
(§3) A proper amount of compound 1b disodium salt and compound 5 was accurately weighed out and well mixed with a proper volume of normal saline by vortexing or ultrasonication to give a 0.5 mg/mL clear solution of compound 1b disodium salt, a 0.25 mg/mL clear solution of compound 5 and a 1.35 mg/mL clear solution of compound 5 for intravenous drip administration.
(§4) A proper amount of tolvaptan and compound 5 was accurately weighed out and well mixed with a proper volume of 1% hydroxypropyl methylcellulose by vortexing or ultrasonication to give a 5 mg/mL solution of tolvaptan and a 1.35 mg/mL solution of compound 5 for intragastric administration.
(§5) The compounds of the intravenous administration group were administered via an intravenous drip over 1 h. The compounds of the intragastric administration group were intragastrically administered. Time points of blood collection were: before the administration and 30 min, 1 h, 1.5 h, 2 h, 4 h, 6 h, 12 h and 24 h after the administration. About 1 mL of blood was collected via the jugular vein or in other suitable ways. EDTA-K2 was used as the anticoagulant, and the esterase inhibitor DDVP was added. Plasma samples were separated and cryopreserved at −70° C., and the levels of related compounds in vivo were determined by LC-MS/MS. About 0.5 mL of blood was collected via the jugular vein or in other suitable ways, placed into separator gel blood collection tubes (without an anticoagulant) and centrifuged at room temperature at 3500 rpm for 10 min to separate the serum, and the concentration of Na^+ in the serum was determined by using the ion-selective electrode method.

beagles = experiment: Blood sodium level (serum Na+, ion-selective electrode) in beagles (Test Example 5); assay type: in vivo; details: compound 5 administered intragastrically 2.7 mg/kg, FIG. 1
Protocol: as §3, §4
as §5, with “Time points of blood collection were: before the administration and 30 min, 1 h, 1.5 h, 2 h, 4 h, 6 h, 12 h and 24 h after the administration. About 1 mL of blood was collected via the jugular vein or in other suitable ways. EDTA-K2 was used as the anticoagulant, and the esterase inhibitor DDVP was added.” left out

[3] = Pharmacokinetic study in dogs (Test Example 1), intragastric administration; assay type: in vivo; details: beagles; for AUC(0-inf) / AUC(0-t) / Cmax / Tmax / half-life: beagle, dog, plasma, mean value
Protocol: as §2
A proper amount of tolvaptan and compound 5 was accurately weighed out and well mixed with a proper volume of 1% hydroxypropyl methylcellulose by vortexing or ultrasonication to give a 0.5 mg/mL solution of tolvaptan and a 2.15 mg/mL solution of compound 5 for intragastric administration.
as §1, with “30 min,” for “0.5 h,”, “DDVP (manufacturer: Sigma)” for “DDVP”

[4] = target: T1, Arginine vasopressin receptor 2 (AVPR2) (Homo sapiens, UniProt P30518); experiment: Arginine vasopressin receptor 2 (AVPR2) receptor cAMP assay in Flpin-CHO-AVPR2 cells; assay type: cell-based, humans; details: arginine vasopressin stimulation
T1 construct: host or cells: Flpin-CHO (CHO cells)
T1 sequence (P30518 whole entry): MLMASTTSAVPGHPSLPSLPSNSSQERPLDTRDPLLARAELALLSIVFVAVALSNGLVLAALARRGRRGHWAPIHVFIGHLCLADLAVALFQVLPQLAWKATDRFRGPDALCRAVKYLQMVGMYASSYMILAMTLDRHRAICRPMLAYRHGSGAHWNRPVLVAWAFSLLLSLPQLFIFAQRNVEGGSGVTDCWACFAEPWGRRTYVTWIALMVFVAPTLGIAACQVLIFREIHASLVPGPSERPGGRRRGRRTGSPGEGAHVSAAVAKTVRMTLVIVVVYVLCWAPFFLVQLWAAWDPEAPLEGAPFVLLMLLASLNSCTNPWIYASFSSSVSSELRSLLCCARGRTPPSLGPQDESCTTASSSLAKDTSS
Protocol: The test compound was 5-fold diluted with assay buffer (Hank's balanced salt solution+20 mM HEPES+0.1% BSA+500 μM IBMX (manufacturer: Sigma)). The highest initial concentration of the test compound in the assay was 10 μM.
Flpin-CHO-AVPR2 (the cell strain was constructed by Pharmaron Beijing Co., Ltd.; AVPR2 was derived from humans)
• 1) Cells were digested, resuspended in assay buffer and inoculated into a 384-well cell culture plate at a density of 8000 cells per well and a volume of 15 μL per well. • 2) The compound was diluted with assay buffer. • 3) 2.5 μL of the compound was added to each well, and the plate was incubated at 37° C. for 10 min. • 4) Arginine vasopressin (manufacturer: MedChemExpress) was diluted with assay buffer to a concentration of 16 μM. • 5) 2.5 μL of the 16 μM solution of arginine vasopressin was added, and the plate was incubated at 37° C. for 30 min. • 6) Eu-cAMP tracer and Ulight-anti-cAMP were thawed and diluted with lysis buffer (Eu-cAMP tracer, Ulight-anti-cAMP and lysis buffer were all taken from the cAMP assay kit (manufacturer: Perkin Elmer)). • 7) 10 μL of Eu-cAMP tracer was added to the experimental wells, and then 10 μL of Ulight-anti-cAMP was added to the experimental wells. • 8) The reaction plate was centrifuged at room temperature at 200 g for 30 s and left at 25° C. for 1 h, and data collection was performed using a microplate reader.

[5] = Pharmacokinetic study in rats (Test Example 3), intravenous injection; assay type: in vivo; details: SD rats
Description: 1.1.1. Experimental Animals: SD Rats, Male and Female, Weighing about 220 g. Housing Environment: SPF. The Animals were Transferred from the Animal Repository (999M-017) of the Laboratory Animal Management Department, Shanghai Institute of Planned Parenthood Research. 1.1.2. Administration Regimen:
A proper amount of the compound was accurately weighed out and well mixed with a proper volume of 10% DMSO+35% PEG400+55% normal saline by vortexing or ultrasonication to give a clear solution for intravenous injection.
Blood was collected at various time points after intravenous injection (before the administration and 0.0833, 0.25, 0.5, 1, 2, 4, 8 and 24 h after the administration). EDTA-K2 was used as the anticoagulant, and the esterase inhibitor DDVP was added. Plasma samples were separated and cryopreserved at −70° C., and the compound and tolvaptan levels were determined by LC-MS/MS.

[6] = female, Compound 5 PO 12.9 mg/kg, molecule detected Compound 5
[7] = male, Compound 5 PO 12.9 mg/kg, molecule detected Compound 5
[8] = iv, Compound 5 0.5 mg/kg i.v. drip over 1 h, molecule detected Compound 5, mean value
[9] = iv, Compound 5 2.7 mg/kg i.v. drip over 1 h, molecule detected Compound 5, mean value
[10] = po, Compound 5 2.7 mg/kg p.o., molecule detected Compound 5, mean value
[11] = Compound 5 administered PO 4.3 mg/kg, molecule detected Compound 5
[12] = intragastric, tolvaptan converted in vivo from compound 5 vs tolvaptan administered
[13] = both sexes, Sprague-Dawley, rat, plasma, iv, Compound M i.v. 3.91 mg/kg, molecule detected Compound M, mean value
[14] = female, Tolvaptan PO 9 mg/kg, molecule detected Tolvaptan
[15] = male, Tolvaptan PO 9 mg/kg, molecule detected Tolvaptan
[16] = po, Tolvaptan 10 mg/kg p.o., molecule detected Tolvaptan, mean value
[17] = Tolvaptan administered PO 1 mg/kg, molecule detected Tolvaptan

AUC(0-t) [1, 6]: 58.4 ng·h/mL
Cmax [1, 6]: 50.1 ng/mL
Tmax [1, 6]: 0.167 h
half-life [1, 6]: 1.67 h
AUC(0-t) [1, 7]: 46.1 ng·h/mL
Cmax [1, 7]: 44.4 ng/mL
Tmax [1, 7]: 0.167 h
half-life [1, 7]: 1.55 h
AUC(0-t) [2, 8]: 1200 ng·h/mL
Cmax [2, 8]: 889 ng/mL
Tmax [2, 8]: 1 h
half-life [2, 8]: 0.704 h
AUC(0-t) [2, 9]: 7850 ng·h/mL
Cmax [2, 9]: 5700 ng/mL
Tmax [2, 9]: 1 h
half-life [2, 9]: 0.647 h
AUC(0-t) [2, 10]: 122 ng·h/mL
Cmax [2, 10]: 61.5 ng/mL
Tmax [2, 10]: 0.5 h
half-life [2, 10]: 1 h
AUC0-t of tolvaptan converted from compound 5 compared with tolvaptan administered intragastrically ([2]; intragastric, compound 5 at a relatively low molar dose (2.7 mg/kg vs tolvaptan 10 mg/kg)): higher AUC0-t
AUC(0-inf) [3, 11]: 162 ng·h/mL
AUC(0-t) [3, 11]: 156 ng·h/mL
Cmax [3, 11]: 88.7 ng/mL
Tmax [3, 11]: 0.389 h
half-life [3, 11]: 1.43 h
exposure compared with tolvaptan [3, 12]: higher exposure
half-life compared with tolvaptan [3, 12]: longer half-life
IC50 [4]: 8 nM
Structure (SMILES): Cc1ccccc1C(=O)Nc1ccc(C(=O)N2CCCC(OCOP(=O)(O)OCC[N+](C)(C)C)c3cc(Cl)ccc32)c(C)c1 (stereo not drawn) [Compound 5, ((7-Chloro-1-(2-methyl-4-(2-methylbenzamido)benzoyl)-2,3,4,5-tetrahydro-1H-benzo[b]azepin-5-yl)oxy)methyl (2-(trimethylammonio)ethyl) phosphate]
elevating the blood sodium level (beagles): has the effect of elevating the blood sodium level

AUC(0-inf) [5, 13]: 824 ng·h/mL
AUC(0-t) [5, 13]: 786 ng·h/mL
Cmax [5, 13]: 719 ng/mL
Tmax [5, 13]: 8.34 min
clearance [5, 13]: 90.8 mL/min/kg
half-life [5, 13]: 1.17 h
Vd ([5]; both sexes, Sprague-Dawley, rat, plasma, iv, Compound M i.v. 3.91 mg/kg, molecule detected Compound M, mean value, read-out: Vss): 6.47 L/kg
Structure (SMILES): Cc1ccccc1C(=O)Nc1ccc(C(=O)N2CCCC(OC(=O)[C@@H](N)C(C)C)c3cc(Cl)ccc32)c(C)c1 (stereo partly drawn) [Compound M]

plasma level of administered molecule ([5]; Hydrochloride of Compound 16 i.v. 4.41 mg/kg, molecule detected Hydrochloride of Compound 16): Undetectable
Structure (SMILES): Cc1ccccc1C(=O)Nc1ccc(C(=O)N2CCCC(OC(=O)OCOC(=O)C(N)C(C)C)c3cc(Cl)ccc32)c(C)c1.Cl (stereo not drawn) [Hydrochloride of Compound 16]

AUC(0-t) [1, 14]: 1820 ng·h/mL
Cmax [1, 14]: 412 ng/mL
Tmax [1, 14]: 2 h
half-life [1, 14]: 2.64 h
AUC(0-t) [1, 15]: 55.5 ng·h/mL
Cmax [1, 15]: 20.3 ng/mL
Tmax [1, 15]: 1.67 h
AUC(0-t) [2, 16]: 10.2 ng·h/mL
Cmax [2, 16]: 3.83 ng/mL
Tmax [2, 16]: 1.17 h
half-life [2, 16]: 2.61 h
AUC(0-inf) [3, 17]: 26.3 ng·h/mL
AUC(0-t) [3, 17]: 21.6 ng·h/mL
Cmax [3, 17]: 7.08 ng/mL
Tmax [3, 17]: 1.5 h
half-life [3, 17]: 1.94 h
Structure (SMILES): Cc1ccccc1C(=O)Nc1ccc(C(=O)N2CCCC(O)c3cc(Cl)ccc32)c(C)c1 (stereo not drawn) [Tolvaptan, reference compound]
